Patent US9657324B1, “Method for treating or preventing mood disorders” (VIRUS IKAGAKU KENKYUSHO INC., priority 2008, dated 2017)

Tests used:
[1] = tested on: HHV-6 variant B; details: "is considered to be", read-out: effective concentration against HHV-6 variant B in terms of IC50; cited from earlier work
[2] = tested on: HHV-6 variant B HST strain; assay: Expression of SITH-1 in HHV-6-infected U373 cells in the presence of ganciclovir (real-time PCR); type: cell-based, human herpesvirus 6; details: U373 glial cell line infected with HHV-6, one day after infection, relative to ganciclovir (-)
Description: The human glial cell line (U373) was infected with HHV-6 in the presence of ganciclovir, and the amount of SITH-1 expressed in the infected cell line was measured by the real-time PCR technique.
The U373 cells were cultured overnight in the presence of ganciclovir at various concentrations (FIG. 14) and infected with an HHV-6 variant B HST strain, and the amount of SITH-1 that was expressed in cells one day after the infection was measured by the real-time PCR technique.
Since the effective concentration of ganciclovir against HHV-6 variant B is considered to be about 10 μM in terms of IC50, three concentrations were obtained by 3-fold dilutions, with 10 μM in the middle.
The vertical axis of the graph in FIG. 14 plots the relative amount of expression of SITH-1 mRNA, with the value for ganciclovir (-) being taken as unity. […] When ganciclovir was used in the amounts of […], 10 μM and 30 μM, the amount of expression of SITH-1 mRNA was suppressed by about 20%, 40% and more than 80%, respectively.

[3] = tested on: CAML; assay: Expression of CAML in HHV-6-infected U373 cells in the presence of ganciclovir (indirect fluorescent antibody technique); type: cell-based, human; details: U373 cell line infected with HHV-6, ganciclovir added after infection
Description: The human glial cell line (U373) is infected with HHV-6, and then ganciclovir is added. The amount of CAML expressed in the infected cell line in the presence of ganciclovir is measure by the indirect fluorescent antibody technique.

[4] = tested on: HHV-6 or Epstein-Barr virus (EBV); details: patients with encephalitis/encephalopathy-like and long-standing fatigue symptoms, presumably due to HHV-6 or EBV infection; cited from earlier work

For `Nc1nc(O)c2ncn(COC(CO)CO)c2n1` [ganciclovir], the IC50 [1] is given as roughly 10 µM, the “amount of expression of SITH-1 mRNA suppressed” value ([2]; ganciclovir 3 μM) is given as “about 20%” and the “amount of expression of SITH-1 mRNA suppressed” value ([2]; ganciclovir 10 μM) is given as roughly 40%. For the same molecule, the “amount of expression of SITH-1 mRNA suppressed” value ([2]; ganciclovir 30 μM) was “more than 80%” and the “amount of CAML expression” value [3] was “suppressed by ganciclovir in a dose-dependent manner”.
In the case of `CC(C)[C@H](N)C(=O)OCC(CO)OCn1cnc2c(=O)nc(N)[nH]c21` (stereo partly drawn) [valganciclovir], the “patients who had their symptoms improved” value [4] is listed as 75%.
